How the values were obtained:
Type in all cases: in vivo, human
[1] = system: C. difficile infection (CDI); experiment: CDI trial: recurrence of CDI, recurrence rate per person-year
Source text: Recurrence was defined to be a diarrhea and a positive C. diff stool toxin assay that occurred after initial clinical success.

[2] = system: patients with non-constipation IBS (non-C IBS); experiment: Stool frequency, rifaximin 550 mg TID study
[3] = system: C. difficile infection (CDI); experiment: CDI trial: efficacy adjusting for concomitant medication usage
Source text: Table 48 sets forth the efficacy adjusting for concomitant medication usage.

[4] = Rifaximin N = 117, Vancomycin N = 115
[5] = after initial clinical success, Rifaximin N = 67, Vancomycin N = 73
[6] = all subjects, Rifaximin N = 117, Vancomycin N = 115
[7] = Rifaximin N = 109, Vancomycin N = 112

CO[C@H]1/C=C/O[C@@]2(C)Oc3c(C)c(O)c4c(O)c(c5c(nc6cc(C)ccn65)c4c3C2=O)NC(=O)/C(C)=C\C=C\[C@H](C)[C@H](O)[C@@H](C)[C@@H](O)[C@@H](C)[C@H](OC(C)=O)[C@@H]1C [Rifaximin, (2S,16Z,18E,20S,21S,22R, 23R,24R,25S,26S,27S,28E)-5,6,21,23,25 Pentahydroxy-27-methoxy-2,4,11,16,20,22,24,26-octamethyl-2,7-(epoxypentadeca-(1,11,13)trienimino) benzofuro (4,5-e) pyrido(1,2,-a) benzimidazole-1,15(2H)-dione,25-acetate]
Recurrence Rate per Person-Year Exposure [1, 4]: 0.613
Recurrence of CDI: Treatment Difference ([1]; Rifaximin vs Vancomycin, subjects with initial clinical success): 4.7%
No Recurrence of CDI, number of subjects [1, 5]: 61
No Recurrence of CDI, percent of subjects [1, 5]: (91%)
Recurrence of CDI, number of subjects [1, 5]: 6
Recurrence of CDI, percent of subjects [1, 5]: (9%)
Recurrence: No, number of subjects [1, 6]: 111
Recurrence: No, percent of subjects [1, 6]: (95%)
Recurrence: Yes, number of subjects [1, 6]: 6
Recurrence: Yes, percent of subjects [1, 6]: (5%)
% with decrease in SF (stool frequency) ([2]; Week 1): 14.4%
% with decrease in SF (stool frequency) ([2]; Week 2): 20.6%
% with decrease in SF (stool frequency) ([2]; Week 3): 22.2%
% with decrease in SF (stool frequency) ([2]; Week 4): 21.6%
% with decrease in SF (stool frequency) ([2]; Week 5): 25.7%
% with decrease in SF (stool frequency) ([2]; Week 6): 22.9%
% with decrease in SF (stool frequency) ([2]; Week 7): 23.8%
% with decrease in SF (stool frequency) ([2]; Week 8): 24.4%
% with decrease in SF (stool frequency) ([2]; Week 9): 25.4%
% with decrease in SF (stool frequency) ([2]; Week 10): 26.7%
% with decrease in SF (stool frequency) ([2]; Week 11): 25.4%
% with decrease in SF (stool frequency) ([2]; Week 12): 27.0%
Diarrhea: No, number of subjects [3, 7]: 71
Diarrhea: No, percent of subjects [3, 7]: (65%)
Diarrhea: Yes, number of subjects [3, 7]: 38
Diarrhea: Yes, percent of subjects [3, 7]: (35%)
Clinical Success: No, number of subjects [3, 4]: 59
Clinical Success: No, percent of subjects [3, 4]: (50%)
Clinical Success: Yes, number of subjects [3, 4]: 58
Clinical Success: Yes, percent of subjects [3, 4]: (50%)
Clinical Success: Treatment Difference ([3]; Rifaximin vs Vancomycin): −10.4%
Diarrhea: Treatment Difference ([3]; Rifaximin vs Vancomycin): −8.1%
